Test results taken from the supplement of paper PMC10307832.

How the values were obtained:
Assay in all cases: relative viability (nuclei count vs DMSO), 5 days (fraction); higher = more cells survive
COR-L 105 = tested on: COR-L 105
In short: (§1)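 Each reported value is a median over duplicate plates. It expresses relative viability: treated-well nuclei count divided by vehicle-well nuclei count. Lung cancer cell lines in 1536-well plates were dosed by pin tool a day after seeding, alone with one drug or with a fixed anchor-drug dose plus five library-drug doses (not always all listed) in √10 steps, and nuclei were counted after 5 days.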

EKVX = tested on: EKVX
In short: as §1

EMC-BAC-2 = tested on: EMC-BAC-2
In short: as §1

H3255 = tested on: H3255
In short: as §1

LC-2-ad = tested on: LC-2-ad
In short: as §1

LK-2 = tested on: LK-2
In short: as §1

LXF-289 = tested on: LXF-289
In short: as §1

NCI-H1395 = tested on: NCI-H1395
In short: as §1

NCI-H1437 = tested on: NCI-H1437
In short: as §1

NCI-H1651 = tested on: NCI-H1651
In short: as §1

NCI-H1755 = tested on: NCI-H1755
In short: as §1

NCI-H1793 = tested on: NCI-H1793
In short: as §1

NCI-H1915 = tested on: NCI-H1915
In short: as §1

NCI-H1944 = tested on: NCI-H1944
In short: as §1

NCI-H2085 = tested on: NCI-H2085
In short: as §1

NCI-H2087 = tested on: NCI-H2087
In short: as §1

NCI-H2347 = tested on: NCI-H2347
In short: as §1

NCI-H661 = tested on: NCI-H661
In short: as §1

PC-3 [JPC-3] = tested on: PC-3 [JPC-3]
In short: as §1

SK-LU-1 = tested on: SK-LU-1
In short: as §1

SK-MES-1 = tested on: SK-MES-1
In short: as §1

For `Cc1cnc(-c2cnc(NCCNc3ccc(C#N)cn3)nc2-c2ccc(Cl)cc2Cl)[nH]1` + Nc1ncn([C@H]2C[C@H](O)[C@@H](CO)O2)c(=O)n1 [Decitabine] (partner 2 µM), the relative viability (COR-L 105; first compound 0.08 µM) was 0.639, the relative viability (COR-L 105; first compound 0.253 µM) was 0.619 and the relative viability (COR-L 105; first compound 0.8 µM) was 0.707. For the same molecule, the relative viability (COR-L 105; first compound 2.53 µM) was 0.49, the relative viability (EKVX; first compound 0.08 µM) was 0.386 and the relative viability (EKVX; first compound 0.253 µM) was 0.315. The relative viability (EKVX; first compound 0.8 µM) was 0.34, the relative viability (EKVX; first compound 2.53 µM) was 0.351 and the relative viability (EMC-BAC-2; first compound 0.08 µM) was 1.15. It also gave a relative viability (EMC-BAC-2; first compound 0.253 µM) of 0.911, a relative viability (EMC-BAC-2; first compound 0.8 µM) of 0.912 and a relative viability (EMC-BAC-2; first compound 2.53 µM) of 0.995. For the same molecule, the relative viability (H3255; first compound 0.08 µM) was 0.765, the relative viability (H3255; first compound 0.253 µM) was 0.531 and the relative viability (H3255; first compound 0.8 µM) was 0.551. It also gave a relative viability (H3255; first compound 2.53 µM) of 0.567, a relative viability (LC-2-ad; first compound 0.08 µM) of 0.791 and a relative viability (LC-2-ad; first compound 0.8 µM) of 0.885. It also gave a relative viability (LC-2-ad; first compound 2.53 µM) of 0.776, a relative viability (LK-2; first compound 0.08 µM) of 0.27 and a relative viability (LK-2; first compound 0.253 µM) of 0.275. It also gave a relative viability (LK-2; first compound 0.8 µM) of 0.323, a relative viability (LK-2; first compound 2.53 µM) of 0.395 and a relative viability (LXF-289; first compound 0.08 µM) of 0.374. For the same molecule, the relative viability (LXF-289; first compound 0.253 µM) was 0.364, the relative viability (LXF-289; first compound 0.8 µM) was 0.392 and the relative viability (LXF-289; first compound 2.53 µM) was 0.398. It also gave a relative viability (NCI-H1395; first compound 0.08 µM) of 0.774, a relative viability (NCI-H1395; first compound 0.253 µM) of 0.714 and a relative viability (NCI-H1395; first compound 0.8 µM) of 0.737. For the same molecule, the relative viability (NCI-H1395; first compound 2.53 µM) was 0.757, the relative viability (NCI-H1437; first compound 0.08 µM) was 0.538 and the relative viability (NCI-H1437; first compound 0.253 µM) was 0.511. For the same molecule, the relative viability (NCI-H1437; first compound 0.8 µM) was 0.558, the relative viability (NCI-H1437; first compound 2.53 µM) was 0.563 and the relative viability (NCI-H1651; first compound 0.08 µM) was 0.626. The relative viability (NCI-H1651; first compound 0.253 µM) was 0.523, the relative viability (NCI-H1651; first compound 0.8 µM) was 0.587 and the relative viability (NCI-H1651; first compound 2.53 µM) was 0.625. For the same molecule, the relative viability (NCI-H1755; first compound 0.08 µM) was 0.723, the relative viability (NCI-H1755; first compound 0.253 µM) was 0.726 and the relative viability (NCI-H1755; first compound 0.8 µM) was 0.771. It also gave a relative viability (NCI-H1755; first compound 2.53 µM) of 0.704, a relative viability (NCI-H1793; first compound 0.08 µM) of 0.494 and a relative viability (NCI-H1793; first compound 0.253 µM) of 0.514. The relative viability (NCI-H1793; first compound 0.8 µM) was 0.583, the relative viability (NCI-H1793; first compound 2.53 µM) was 0.541 and the relative viability (NCI-H1915; first compound 0.08 µM) was 0.275. It also gave a relative viability (NCI-H1915; first compound 0.8 µM) of 0.286, a relative viability (NCI-H1915; first compound 2.53 µM) of 0.264 and a relative viability (NCI-H1944; first compound 0.08 µM) of 0.476. It also gave a relative viability (NCI-H1944; first compound 0.8 µM) of 0.5, a relative viability (NCI-H1944; first compound 2.53 µM) of 0.402 and a relative viability (NCI-H2085; first compound 0.08 µM) of 0.535. The relative viability (NCI-H2085; first compound 0.253 µM) was 0.554, the relative viability (NCI-H2085; first compound 0.8 µM) was 0.542 and the relative viability (NCI-H2085; first compound 2.53 µM) was 0.572. The relative viability (NCI-H2087; first compound 0.08 µM) was 0.282, the relative viability (NCI-H2087; first compound 0.8 µM) was 0.286 and the relative viability (NCI-H2087; first compound 2.53 µM) was 0.204. The relative viability (NCI-H2347; first compound 0.08 µM) was 0.708, the relative viability (NCI-H2347; first compound 0.253 µM) was 0.55 and the relative viability (NCI-H2347; first compound 0.8 µM) was 0.65. The relative viability (NCI-H2347; first compound 2.53 µM) was 0.65, the relative viability (NCI-H661; first compound 0.08 µM) was 0.609 and the relative viability (NCI-H661; first compound 0.253 µM) was 0.545. It also gave a relative viability (NCI-H661; first compound 0.8 µM) of 0.569, a relative viability (NCI-H661; first compound 2.53 µM) of 0.551 and a relative viability (PC-3 [JPC-3]; first compound 0.08 µM) of 0.777. The relative viability (PC-3 [JPC-3]; first compound 0.253 µM) was 0.825, the relative viability (PC-3 [JPC-3]; first compound 0.8 µM) was 0.785 and the relative viability (PC-3 [JPC-3]; first compound 2.53 µM) was 0.791. It also gave a relative viability (SK-LU-1; first compound 0.08 µM) of 0.645, a relative viability (SK-LU-1; first compound 0.253 µM) of 0.478 and a relative viability (SK-LU-1; first compound 0.8 µM) of 0.688. It also gave a relative viability (SK-LU-1; first compound 2.53 µM) of 0.711, a relative viability (SK-MES-1; first compound 0.08 µM) of 0.378 and a relative viability (SK-MES-1; first compound 0.253 µM) of 0.35. It also gave a relative viability (SK-MES-1; first compound 0.8 µM) of 0.393 and a relative viability (SK-MES-1; first compound 2.53 µM) of 0.406.
